Data set [1] concerns PC-9. The experiment in a line: Cytotoxicity against human PC-9 cells harboring EGFR mutant assessed as inhibition of cell growth. In kind it is functional, cell-based.
Data set [2] deals with ALK tyrosine kinase receptor (Homo sapiens) (UniProt Q9UM73). As to the kind of experiment: Inhibition of ALK (unknown origin) at 10 nM.
The test system of data set [3] is BEAS-2B. The experiment in a line: Cytotoxicity against human BEAS-2B cells assessed as reduction in cell viability at 4 nM. As to conditions: 0.004 µM. In kind it is toxicity, cell-based.
Data set [4] addresses Epidermal growth factor receptor (Homo sapiens) (UniProt P00533). As to the kind of experiment: Inhibition of EGFR (unknown origin) assessed as residual activity relative to control.
Data set [5] has as its target Serine/threonine-protein kinase pim-1 (Homo sapiens) (UniProt P11309). The experiment in a line: Inhibition of Moloney murine leukemia virus Proviral integration site 1 at 10 nM.
The target of data set [6] is Tyrosine-protein kinase Fer (Homo sapiens) (UniProt P16591). As to the kind of experiment: Inhibition of FER (unknown origin) at 10 nM.
Data set [7] relates to PC-9. As to the kind of experiment: Additive cytotoxicity against human PC-9 cells assessed as reduction in cell viability at 4 nM incubated in presence of afatinib. In kind it is functional, cell-based.
For data set [8], the system named is BEAS-2B. As to the kind of experiment: Cytotoxicity against human BEAS-2B cells assessed as reduction in cell viability at 4 nM incubated in presence of afatinib. In kind it is toxicity, cell-based. As to conditions: 0.004 µM.
Data set [9] relates to PC-9. As to the kind of experiment: Cytotoxicity against human PC-9 cells harboring EGFR mutant assessed as inhibition of cell growth incubated for 72 hrs by ATP-based luminescence CellTiter-Glo assay. As to conditions: PC-9, 72 h. In kind it is functional. A general note: In ATP-based viability assays light output follows the ATP content of the culture.
For data set [10], the target named is Serine/threonine-protein kinase pim-1 (Homo sapiens) (UniProt P11309). As to the kind of experiment: Inhibition of Moloney murine leukemia virus Proviral integration site 1 at 50 nM.
The subject of data set [11] is BEAS-2B. As to the kind of experiment: Cytotoxicity against human BEAS-2B cells assessed as reduction in cell viability at 34 nM incubated in presence of afatinib. In kind it is toxicity, cell-based. Conditions: 0.034 µM.
The target in data set [12] is Tyrosine-protein kinase Fer (Homo sapiens) (UniProt P16591). As to the kind of experiment: Inhibition of FER (unknown origin) at 50 nM.
The target in data set [13] is ALK tyrosine kinase receptor (Homo sapiens) (UniProt Q9UM73). As to the kind of experiment: Inhibition of ALK (unknown origin) at 50 nM.
In data set [14] the test system is PC-9. The experiment in a line: Additive cytotoxicity against human PC-9 cells assessed as reduction in cell viability at 34 nM incubated in presence of afatinib. In kind it is functional, cell-based.
Data set [15] relates to BEAS-2B. As to the kind of experiment: Cytotoxicity against human BEAS-2B cells assessed as reduction in cell viability at 34 nM. In kind it is toxicity, cell-based. Conditions: 0.034 µM.

Calls of active or inactive are those of the source. No cut-off for these calls is given here.

Chain of Tyrosine-protein kinase Fer (Homo sapiens) (P16591 whole entry, looked up): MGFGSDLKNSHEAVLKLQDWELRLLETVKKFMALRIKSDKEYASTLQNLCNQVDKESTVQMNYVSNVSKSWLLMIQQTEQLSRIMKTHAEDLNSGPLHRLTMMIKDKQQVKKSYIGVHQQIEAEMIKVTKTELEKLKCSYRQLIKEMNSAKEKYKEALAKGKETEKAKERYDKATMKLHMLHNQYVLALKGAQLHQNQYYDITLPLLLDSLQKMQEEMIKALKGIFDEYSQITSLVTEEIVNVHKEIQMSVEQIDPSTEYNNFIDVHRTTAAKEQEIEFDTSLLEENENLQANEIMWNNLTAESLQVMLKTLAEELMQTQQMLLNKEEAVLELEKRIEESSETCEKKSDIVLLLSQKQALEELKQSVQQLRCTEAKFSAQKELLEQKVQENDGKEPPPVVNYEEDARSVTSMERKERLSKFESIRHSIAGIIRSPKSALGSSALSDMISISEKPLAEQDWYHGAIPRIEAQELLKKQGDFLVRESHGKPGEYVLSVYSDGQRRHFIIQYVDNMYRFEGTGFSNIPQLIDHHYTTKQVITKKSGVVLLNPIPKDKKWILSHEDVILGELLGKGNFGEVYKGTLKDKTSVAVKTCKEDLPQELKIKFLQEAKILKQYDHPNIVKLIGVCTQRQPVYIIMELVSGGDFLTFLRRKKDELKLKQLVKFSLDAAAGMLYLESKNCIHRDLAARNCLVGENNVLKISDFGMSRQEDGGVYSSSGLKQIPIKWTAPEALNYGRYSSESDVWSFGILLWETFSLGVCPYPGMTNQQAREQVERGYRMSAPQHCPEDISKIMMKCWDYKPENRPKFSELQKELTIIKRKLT
Chain of ALK tyrosine kinase receptor (Homo sapiens) (Q9UM73 19-1620 limits assumed): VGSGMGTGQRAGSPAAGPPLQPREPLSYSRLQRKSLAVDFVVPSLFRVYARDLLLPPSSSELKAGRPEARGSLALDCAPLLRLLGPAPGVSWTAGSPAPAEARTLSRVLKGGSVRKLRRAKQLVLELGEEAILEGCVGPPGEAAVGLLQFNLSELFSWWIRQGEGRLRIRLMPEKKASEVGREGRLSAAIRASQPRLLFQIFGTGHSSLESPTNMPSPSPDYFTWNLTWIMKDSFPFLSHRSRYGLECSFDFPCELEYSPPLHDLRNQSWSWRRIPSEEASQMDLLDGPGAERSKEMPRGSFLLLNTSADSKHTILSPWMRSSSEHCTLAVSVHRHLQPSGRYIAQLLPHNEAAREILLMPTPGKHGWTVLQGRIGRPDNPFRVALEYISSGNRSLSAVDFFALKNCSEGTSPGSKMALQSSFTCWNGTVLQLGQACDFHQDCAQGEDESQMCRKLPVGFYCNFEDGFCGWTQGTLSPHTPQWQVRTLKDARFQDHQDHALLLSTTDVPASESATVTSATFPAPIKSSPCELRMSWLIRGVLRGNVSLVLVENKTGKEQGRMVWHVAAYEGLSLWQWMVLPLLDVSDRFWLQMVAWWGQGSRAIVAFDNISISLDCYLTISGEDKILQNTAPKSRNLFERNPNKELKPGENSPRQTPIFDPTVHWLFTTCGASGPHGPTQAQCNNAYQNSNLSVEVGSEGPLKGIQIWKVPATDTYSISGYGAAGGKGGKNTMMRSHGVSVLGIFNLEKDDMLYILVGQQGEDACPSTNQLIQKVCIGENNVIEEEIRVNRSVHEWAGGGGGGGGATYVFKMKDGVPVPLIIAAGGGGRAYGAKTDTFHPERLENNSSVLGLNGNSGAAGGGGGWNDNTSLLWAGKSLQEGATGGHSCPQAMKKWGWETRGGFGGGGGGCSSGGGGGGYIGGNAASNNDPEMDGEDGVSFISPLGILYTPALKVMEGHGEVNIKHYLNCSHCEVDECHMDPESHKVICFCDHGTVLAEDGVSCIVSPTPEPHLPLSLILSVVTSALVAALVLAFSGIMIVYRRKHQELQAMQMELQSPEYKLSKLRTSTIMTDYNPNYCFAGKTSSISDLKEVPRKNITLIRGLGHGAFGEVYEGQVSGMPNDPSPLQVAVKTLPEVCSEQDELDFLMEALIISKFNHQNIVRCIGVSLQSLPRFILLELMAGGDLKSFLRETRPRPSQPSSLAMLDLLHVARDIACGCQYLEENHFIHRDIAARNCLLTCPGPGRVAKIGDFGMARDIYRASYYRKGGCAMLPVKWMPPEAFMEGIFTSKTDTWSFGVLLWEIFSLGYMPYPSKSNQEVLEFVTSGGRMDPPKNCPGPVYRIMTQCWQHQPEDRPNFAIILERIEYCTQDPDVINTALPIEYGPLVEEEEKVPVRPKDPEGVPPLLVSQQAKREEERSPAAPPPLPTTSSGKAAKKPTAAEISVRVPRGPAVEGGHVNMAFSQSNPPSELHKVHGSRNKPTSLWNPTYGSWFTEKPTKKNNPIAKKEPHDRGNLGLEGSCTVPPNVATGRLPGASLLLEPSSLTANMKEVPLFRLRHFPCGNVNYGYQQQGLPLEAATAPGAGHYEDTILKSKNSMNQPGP
Chain of Epidermal growth factor receptor (Homo sapiens) (P00533 whole entry): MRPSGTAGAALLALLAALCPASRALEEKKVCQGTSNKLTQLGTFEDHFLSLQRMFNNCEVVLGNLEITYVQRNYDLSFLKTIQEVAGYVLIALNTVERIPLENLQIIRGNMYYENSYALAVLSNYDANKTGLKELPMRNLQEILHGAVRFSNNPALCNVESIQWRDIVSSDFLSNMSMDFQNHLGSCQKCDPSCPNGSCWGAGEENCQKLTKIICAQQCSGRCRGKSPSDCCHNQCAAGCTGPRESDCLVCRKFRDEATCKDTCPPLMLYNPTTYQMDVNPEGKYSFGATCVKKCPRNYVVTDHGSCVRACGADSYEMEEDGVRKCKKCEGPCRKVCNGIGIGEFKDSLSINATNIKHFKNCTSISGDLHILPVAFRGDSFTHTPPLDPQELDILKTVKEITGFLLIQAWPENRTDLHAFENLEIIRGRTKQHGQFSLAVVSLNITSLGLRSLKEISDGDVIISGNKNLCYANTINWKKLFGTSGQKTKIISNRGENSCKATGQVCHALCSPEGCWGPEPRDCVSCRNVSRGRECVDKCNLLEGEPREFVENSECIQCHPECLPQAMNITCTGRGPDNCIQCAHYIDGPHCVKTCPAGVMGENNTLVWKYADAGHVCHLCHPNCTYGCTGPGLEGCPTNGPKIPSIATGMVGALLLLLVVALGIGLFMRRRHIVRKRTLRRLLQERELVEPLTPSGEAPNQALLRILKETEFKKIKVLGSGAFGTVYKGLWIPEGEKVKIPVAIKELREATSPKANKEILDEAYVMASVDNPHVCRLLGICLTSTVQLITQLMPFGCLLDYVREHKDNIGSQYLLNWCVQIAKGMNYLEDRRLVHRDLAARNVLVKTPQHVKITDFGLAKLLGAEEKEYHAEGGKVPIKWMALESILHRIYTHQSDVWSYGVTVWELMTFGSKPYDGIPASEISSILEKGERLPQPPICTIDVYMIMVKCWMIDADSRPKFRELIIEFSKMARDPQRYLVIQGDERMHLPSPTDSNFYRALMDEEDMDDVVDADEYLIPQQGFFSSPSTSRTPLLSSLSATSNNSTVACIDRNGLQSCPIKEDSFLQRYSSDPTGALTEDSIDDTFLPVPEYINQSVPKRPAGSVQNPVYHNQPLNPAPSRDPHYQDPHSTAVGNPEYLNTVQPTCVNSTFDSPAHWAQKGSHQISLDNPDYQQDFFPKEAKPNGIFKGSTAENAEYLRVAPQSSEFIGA

In general, IC50 refers to the concentration that gives 50% inhibition. Consider `Fc1ccc2ncnc(NCCc3cccc(Br)c3)c2c1`, for which the IC50 with PC-9 [1] stood at 685 nM.
On the same count and under the same terms, in the case of `Fc1ccc2ncnc(NCCc3ccc(-c4ccccc4F)cc3)c2c1` it was 66 nM; in that of `Fc1ccc2ncnc(NCCc3ccc(-c4ccoc4)cc3)c2c1`, 288 nM; in that of `Fc1ccc2ncnc(NCCc3ccc4ccccc4c3)c2c1`, 64 nM.
With `Fc1ccc2ncnc(NCCc3ccc(Oc4ccccc4)cc3)c2c1`, in the data set on PC-9 [1], the IC50 was found to be 14 nM.
For the compound `Fc1ccc2ncnc(NCCc3ccc(-c4ccc5c(c4)OCCO5)cc3)c2c1`, the IC50 in the data set with PC-9 [1] worked out at 69 nM.
`COc1ccc(Oc2ccc(CCNc3ncnc4ccc(F)cc34)cc2)cc1`: the IC50 in the data set with PC-9 [1] is 7 nM.
Same read-out and setting: in the case of `Cc1ccc(-c2ccc(CCNc3ncnc4ccc(F)cc34)cc2)cc1` it was 49 nM; in that of `Fc1ccc2ncnc(NCCc3ccc(-c4ccc(Cl)cc4)cc3)c2c1`, 44 nM; in that of `Fc1ccc2ncnc(NCCc3ccc(OCc4ccccc4)cc3)c2c1`, 30 nM.
As for `Fc1ccc(Oc2ccc(CCNc3ncnc4ccc(F)cc34)cc2)cc1`, the inhibition result in data set [2], in data set [5] and in data set [6] was “Active” each time. The Activity entry is “Non-Toxic” in the data set on BEAS-2B [3], greater than 90% in [4] and “Non-Toxic” with BEAS-2B [8]. Further, the IC50 in the data set with PC-9 [1] was 4 nM. The outcome with PC-9 [7] was Active.
Turning to `Fc1ccc2ncnc(NCCc3ccc(-c4cccc(F)c4F)cc3)c2c1`, in the data set with PC-9 [1], the IC50 was found to be 76 nM.
Consider `Fc1ccc2ncnc(NCCc3ccc(-c4cccc5ccccc45)cc3)c2c1`, for which, in the data set with PC-9 [1], the IC50 amounted to 291 nM.
Consider `Fc1ccc2ncnc(NCCc3ccc(-c4ccncc4)cc3)c2c1`, for which the IC50 in the data set with PC-9 [1] turned out to be 408 nM.
In the case of `Fc1ccc2ncnc(NCCc3ccc(-c4ccc(Oc5ccccc5)cc4)cc3)c2c1`, the IC50 in the data set with PC-9 [1] amounted to 280 nM.
Take `Fc1ccc2ncnc(NCCc3ccc(Br)cc3)c2c1`: the IC50 with PC-9 [9] amounted to 207 nM.
In the case of `Fc1ccc2ncnc(NCCc3ccc(-c4ccccc4)cc3)c2c1`, the IC50 in the data set on PC-9 [1] worked out at 77 nM.
As to `Fc1ccc2ncnc(NCCc3cccc(-c4ccccc4)c3)c2c1`, the IC50 in the data set with PC-9 [1] stood at 668 nM.
The same measure, in the same setting: in the case of `CN(C)C/C=C/C(=O)Nc1cc2c(Nc3ccc(F)c(Cl)c3)ncnc2cc1O[C@H]1CCOC1` [AFATINIB] it was 5 nM; in that of `Fc1ccc2ncnc(NCCc3ccc(I)cc3)c2c1`, 261 nM.
On the same count and under the same terms, then `Fc1ccc2ncnc(NCCc3ccc(-c4ccc5oc6ccccc6c5c4)cc3)c2c1`, with 79 nM; and `Fc1ccc(-c2ccc(CCNc3ncnc4ccc(F)cc34)cc2)cc1`, with 160 nM.
For the compound `COc1ccc(-c2ccc(CCNc3ncnc4ccc(F)cc34)cc2)cc1`, the IC50 with PC-9 [1] came to 69 nM.
Turning to `Fc1ccc2ncnc(NCCc3ccc(-c4cccnc4)cc3)c2c1`, in the data set with PC-9 [1], the half-maximal inhibitory concentration (IC50) was 1040 nM.
Same read-out and setting: then `Fc1ccc2ncnc(NC3CCc4cc(Br)ccc4C3)c2c1` (centres undefined), with 718 nM; and `Fc1ccc2ncnc(NCCc3ccccc3-c3ccccc3)c2c1`, with greater than 5000 nM; and `Fc1ccc2ncnc(NCCc3ccccc3Br)c2c1`, with 892 nM.
Consider `CC(C)(C)c1ccc(CCNc2ncnc3ccc(F)cc23)cc1`, for which the concentration for half-maximal inhibition (IC50) in the data set with PC-9 [1] turned out to be 45 nM.
`COc1ccccc1-c1ccc(CCNc2ncnc3ccc(F)cc23)cc1`: in the data set on PC-9 [1], the IC50 came out at 105 nM.
As to `Fc1ccc(-c2ccc(CCNc3ncnc4ccc(F)cc34)cc2)c(F)c1`, the Activity in data set [4] is greater than 90%; in the data set with BEAS-2B [11], “Non-Toxic”; in the data set on BEAS-2B [15], “Non-Toxic”. Further, the IC50 in the data set with PC-9 [1] worked out at 34 nM. The inhibition result in data set [10], in data set [12] and in data set [13] was “Active” in each case. Further, the result in the data set on PC-9 [14] was Active.
With `CC(C)(C)c1ccc(-c2ccc(CCNc3ncnc4ccc(F)cc34)cc2)cc1`, in the data set with PC-9 [1], the IC50 was found to be 363 nM.
`CC(C)(C)Oc1ccc(-c2ccc(CCNc3ncnc4ccc(F)cc34)cc2)cc1`: the IC50 in the data set on PC-9 [1] is 1700 nM.
As for `Fc1ccc(CNc2ncnc3ccc(F)cc23)cc1`, the IC50 in the data set with PC-9 [9] was greater than 5000 nM.
Consider `Fc1ccc2ncnc(Nc3ccc4cc(Br)ccc4c3)c2c1`, for which, in the data set on PC-9 [1], the IC50 was greater than 5000 nM.
Take `Fc1ccc2ncnc(NCCc3ccc(-c4ccc5ccccc5c4)cc3)c2c1`: the IC50 in the data set on PC-9 [1] is 101 nM.
With `Fc1ccc2ncnc(NCCc3ccc(-c4ccc(F)c(F)c4)cc3)c2c1`, in the data set with PC-9 [1], the IC50 was 138 nM.
The same measure, in the same setting: in the case of `Fc1ccc2ncnc(NCCc3ccc(-c4ccc(C(F)(F)F)cc4)cc3)c2c1` it was 131 nM; in that of `Fc1cccc(-c2ccc(CCNc3ncnc4ccc(F)cc34)cc2)c1`, 618 nM; in that of `Fc1ccc2ncnc(NCCc3ccc(-c4ccco4)cc3)c2c1`, 636 nM.
`COc1cccc(-c2ccc(CCNc3ncnc4ccc(F)cc34)cc2)c1`: in the data set with PC-9 [1], the IC50 worked out at 67 nM.

Values taken from ChEMBL document CHEMBL5223144, “Second generation Spautin-1 analogues targeting EGFR-mutant non-small cell lung cancer cells” (Bioorg Med Chem Lett, 2023).
